These results are taken from article PMC6301899, “Characterization, expression and application of a zearalenone degrading enzyme from Neurospora crassa” (AMB Express, 2018).

The assay addresses T1, ZENC (Neurospora crassa, UniProt Q1K8M1).
T1 construct: gene NCU05345; codon-optimised full gene (888 bp; 295 residues in abstract, 296 in results) fused to alpha-factor signal peptide in pPIC9K; secreted from Pichia pastoris GS115, HiTrap Q purified; about 29 kDa by SDS-PAGE; proposed catalytic triad Ser117, Asp141, His274
Briefly: HPLC with fluorescence detection of remaining substrate; nonlinear Hill fit with n = […]. As to conditions: 50 mM Tris-HCl pH 8.0, 45 °C, 3 min; substrate range printed as 2 to 220 mM. The format is biochemical.

The structures appear in SMILES notation.

T1 sequence (Q1K8M1 entry or part of it): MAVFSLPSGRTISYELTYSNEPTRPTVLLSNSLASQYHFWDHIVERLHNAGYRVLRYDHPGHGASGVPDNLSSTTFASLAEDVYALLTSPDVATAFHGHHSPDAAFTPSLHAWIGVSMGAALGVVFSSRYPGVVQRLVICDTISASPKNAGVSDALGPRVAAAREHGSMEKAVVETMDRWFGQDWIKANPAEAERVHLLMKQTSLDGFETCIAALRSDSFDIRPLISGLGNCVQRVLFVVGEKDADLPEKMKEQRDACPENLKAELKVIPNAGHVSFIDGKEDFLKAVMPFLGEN

One may read the Km as the substrate concentration at which the rate is half of its maximum. As to `C[C@H]1CCCC(=O)CCC/C=C/c2cc(O)cc(O)c2C(=O)O1` [zearalenone], the Km was determined as 38.6 ± 5.87 µM.
